Among the test systems are MDA-N; NCI/ADR-RES; T47D; BT-549.
What all share (assay): growth of human tumour cells (NCI), 48 h

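Assay format: 96-well plates, 48-hour exposure. At the GI50, growth is halved.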 Active and inactive are the calls of the source. Rule as the data show it: active = GI50 up to about 1.1 µM and inactive = higher.

Consider `Nc1nc(Cl)c(N)c(NCC2(CO)CC(O)C2)n1` (configuration not stated), for which the GI50 with MDA-N, with NCI/ADR-RES, with T47D and in the assay with BT-549 was > 100 µM (inactive) throughout.

For the compound `O=c1c(Nc2ccccc2)cn(CCOc2ccccc2)c(=O)n1CCOc1ccccc1`, the GI50 is > 100 µM (inactive) with MDA-N, 47.2 µM (inactive) in the assay with NCI/ADR-RES and 20.8 µM (inactive) in the assay on BT-549.

Take `COC(=O)c1ccccc1CC1Cc2ccc3c(c2C1)CCC3` (configuration not stated): the GI50 in the assay with MDA-N is 34 µM (inactive); in the assay with NCI/ADR-RES, 21 µM (inactive); in the assay on T47D it was 22.9 µM (inactive); in the assay on BT-549, 60.8 µM (inactive).

Regarding `CSc1nnc(SC)nn1`, the GI50 in the assay with MDA-N is 16.1 µM (inactive); in the assay with NCI/ADR-RES, 16.8 µM (inactive); in the assay on T47D, 2.76 µM (inactive); with BT-549, 16 µM (inactive).

For the compound `CCCCCCCCCCCCNC(C)=O`, the GI50 in the assay with MDA-N is 16.7 µM (inactive); in the assay with NCI/ADR-RES, 17.3 µM (inactive); with T47D, 18.9 µM (inactive); in the assay on BT-549, 13.7 µM (inactive).

On to `CCC1CN2CCc3c([nH]c4ccccc34)[C@@](C(=O)OC)(c3cc4c(cc3OC)N(C)C3C(O)(C(=O)OC)C(C(=O)OC)C5(CC)C=CCN6CCC43C65)C[C@@H](C2)[C@@H]1C(C)(C)C` (some centres not stated), for which the GI50 in the assay with MDA-N was 0.187 µM (active); in the assay on NCI/ADR-RES it was 2.75 µM (inactive); in the assay on T47D it was 0.687 µM (active); in the assay with BT-549, 1.61 µM (inactive).

With `O=[N+]([O-])c1cccc([N+](=O)[O-])c1S(=O)(=O)c1ccccc1`, the GI50 with MDA-N is 5.51 µM (inactive); in the assay on NCI/ADR-RES, 6.24 µM (inactive); in the assay with T47D, 2.13 µM (inactive); with BT-549, 3.08 µM (inactive).

Consider `COC1/C=C/C(C)C(C(C)C(OC)C(C)CCC(=O)C(C)C(CC(=O)O)OC)OC(=O)/C=C/C=C(\C)CC(OC)C(OC)C2=CC(=O)O[C@@H](C(C)C(OC)CC(OC)/C=C/C(C)C(O)C1)[C@H]2O` (some centres not stated), for which the GI50 in the assay on MDA-N is 0.0785 µM (active); in the assay with NCI/ADR-RES it was 0.149 µM (active); in the assay on T47D it was 0.135 µM (active).

On to `O=c1c2cc(S(=O)(=O)Nc3ccccc3Cl)ccc2ncn1NS(=O)(=O)c1ccc(Br)cc1`, for which the GI50 in the assay on MDA-N, with NCI/ADR-RES and in the assay on BT-549 was > 37.5 µM (inactive) in each case.

As to `Oc1ccc(-c2nc3ccccc3s2)cc1`, the GI50 was 32.9 µM (inactive) in the assay on MDA-N, 31.8 µM (inactive) in the assay on NCI/ADR-RES, 21.5 µM (inactive) with T47D and 50.2 µM (inactive) in the assay with BT-549.

Regarding `Cc1cc2c(c(O)c1-c1c(C)cc(O)c3c1C(=O)C=CC3=O)C(=O)C=CC2=O`, the GI50 in the assay with MDA-N was 1.46 µM (inactive); with NCI/ADR-RES it was 2.49 µM (inactive); with T47D, 1.34 µM (inactive); with BT-549, 2.61 µM (inactive).

In the case of `CCNC(=O)Nc1ccccn1`, the GI50 in the assay on MDA-N, in the assay with T47D and in the assay with BT-549 was > 100 µM (inactive) each time.

For the compound `O=c1[nH]nc(Cc2ccc(Cl)cc2)n1O`, the GI50 in the assay with MDA-N, in the assay on NCI/ADR-RES and in the assay with T47D was > 100 µM (inactive) throughout.

Take `[O-]c1c[n+](CCCC[n+]2cc([O-])on2)no1`: the GI50 with MDA-N, in the assay on NCI/ADR-RES, in the assay on T47D and in the assay on BT-549 was > 100 µM (inactive) each time.

Take `CC(C)(CO)CNc1nc(N)nc(Cl)c1C=O`: the GI50 with MDA-N was 25.5 µM (inactive); in the assay with NCI/ADR-RES it was 42.2 µM (inactive); with T47D it was 42.9 µM (inactive); in the assay on BT-549 it was 41.1 µM (inactive).

On to `Cn1/c(=N\S(=O)(=O)c2ccccc2)[nH]c2ccccc21`, for which the GI50 with MDA-N was > 100 µM (inactive); in the assay with NCI/ADR-RES, 91.8 µM (inactive); with T47D, > 100 µM (inactive); in the assay with BT-549, > 100 µM (inactive).

Take `Cc1ncc(CO)c(CN)c1O`: the GI50 in the assay with MDA-N, in the assay on NCI/ADR-RES, in the assay with T47D and with BT-549 was > 100 µM (inactive) in each case.

Consider `Cc1ccc(S[C@@H](C)[C@@](O)(C(N)=O)c2ccccc2)cc1`, for which the GI50 is 33.8 µM (inactive) in the assay on MDA-N, 19.9 µM (inactive) with NCI/ADR-RES, 26.7 µM (inactive) in the assay on T47D and 30.1 µM (inactive) in the assay with BT-549.

With `CC(=O)c1c(SCCN2CCOCC2)n(-c2ccccc2)c(=S)n(-c2ccccc2)c1=O`, the GI50 was 18.8 µM (inactive) in the assay on MDA-N, > 57 µM (inactive) with NCI/ADR-RES, 17.6 µM (inactive) in the assay on T47D and 21.1 µM (inactive) in the assay on BT-549.

In the case of `OCCCNCc1ccccn1`, the GI50 in the assay with MDA-N, with NCI/ADR-RES, with T47D and in the assay with BT-549 was > 100 µM (inactive) throughout.

`O=S(=O)(O)c1ccc(/N=N/c2ccc(/N=N/c3c(O)ccc4cc(S(=O)(=O)O)ccc34)cc2)cc1`: the GI50 in the assay on NCI/ADR-RES and in the assay on BT-549 was > 100 µM (inactive) throughout.

Regarding `N#CC[N+]1(Cc2ccccn2)CCCC1.O=S(=O)([O-])c1ccccc1`, the GI50 in the assay on MDA-N, in the assay with NCI/ADR-RES, in the assay with T47D and in the assay with BT-549 was > 100 µM (inactive) each time.

Consider `COc1ccc([C@@]23Oc4cc(OC)cc(OC)c4[C@]2(O)[C@H](O)[C@H](C(N)=O)[C@H]3c2ccccc2)cc1` [DIDESMETHYLROCAGLAMIDE], for which the GI50 with MDA-N is < 0.01 µM (active); in the assay with NCI/ADR-RES it was 0.0656 µM (active); in the assay with T47D it was < 0.01 µM (active); in the assay on BT-549 it was < 0.0112 µM (active).

Turning to `Cc1nc2ccc(S(=O)(=O)Nc3ccccn3)cc2c(=O)n1NS(=O)(=O)c1ccccn1`, the GI50 with MDA-N, in the assay on NCI/ADR-RES, with T47D and in the assay on BT-549 was > 100 µM (inactive) throughout.

As for `O=C(O)c1ccc(C(O)(c2ccccc2)c2ccccc2)cc1`, the GI50 with MDA-N, in the assay with NCI/ADR-RES, in the assay on T47D and in the assay with BT-549 was > 100 µM (inactive) each time.

Take `CC(=O)N(C(C)=O)n1c(Cc2ccc(Cl)cc2)n[nH]c1=O`: the GI50 in the assay on MDA-N, in the assay with NCI/ADR-RES and in the assay on BT-549 was > 100 µM (inactive) in each case.

In the case of `CSc1nc(SC)c2c(CO)c(Br)n(Cc3ccccc3)c2n1`, the GI50 in the assay on MDA-N is > 100 µM (inactive); in the assay with NCI/ADR-RES it was 24.7 µM (inactive); in the assay with T47D, 14.9 µM (inactive); in the assay with BT-549 it was 21.6 µM (inactive).

Turning to `C=CCSC1=N/C(=C\c2ccc(C)cc2)C(=O)N1CC=C`, the GI50 with MDA-N was 18.6 µM (inactive); in the assay on NCI/ADR-RES, 40.5 µM (inactive); with T47D it was 25.9 µM (inactive); with BT-549 it was 23.6 µM (inactive).

As to `CCOC(=O)c1cc(C2=CCNC2=O)c(-c2cc(C)no2)[nH]1`, the GI50 in the assay on MDA-N was 94.6 µM (inactive); with NCI/ADR-RES it was 30.5 µM (inactive); in the assay with T47D, 30.8 µM (inactive); with BT-549, > 100 µM (inactive).

As for `CN(CC(=O)O)Cc1c[nH]c2ccccc12`, the GI50 in the assay on MDA-N, in the assay on NCI/ADR-RES and in the assay with BT-549 was > 100 µM (inactive) each time.

On to `c1ccc2c(c1)ncn2C1CCCCO1` (configuration not stated), for which the GI50 in the assay on MDA-N, with NCI/ADR-RES, in the assay on T47D and with BT-549 was > 100 µM (inactive) each time.

Turning to `COC(=O)CCCCC/C(=C\C(=O)C(Cl)(Cl)Cl)OC`, the GI50 in the assay on MDA-N was 24 µM (inactive); in the assay on NCI/ADR-RES it was 30.5 µM (inactive); with T47D it was 28.5 µM (inactive); in the assay on BT-549 it was 38.9 µM (inactive).

Take `Cc1sc(C)c2c1C(=O)CC2N` (configuration not stated): the GI50 with MDA-N was 21.1 µM (inactive); with NCI/ADR-RES it was 50.4 µM (inactive); in the assay with T47D it was 17.4 µM (inactive); in the assay on BT-549, 20 µM (inactive).

On to `O=c1c2ncn(C3CCCCO3)c2n(-c2ccccc2)c(=S)n1-c1ccccc1` (configuration not stated), for which the GI50 with MDA-N was > 66.1 µM (inactive); in the assay on NCI/ADR-RES, 30.1 µM (inactive); in the assay with T47D, 2.31 µM (inactive); in the assay with BT-549 it was 23 µM (inactive).

Take `COc1ccc(C=O)cc1OS(=O)(=O)C(F)(F)C(F)(F)C(F)(F)C(F)(F)F`: the GI50 is 19 µM (inactive) in the assay on MDA-N, 21 µM (inactive) in the assay with NCI/ADR-RES, 41.7 µM (inactive) in the assay with T47D and 30.2 µM (inactive) in the assay with BT-549.

With `COC(=O)C12OC3CO[Si](C(C)C)(C(C)C)O[Si](C(C)C)(C(C)C)OC3C1Oc1nc(=O)ccn12` (configuration not stated), the GI50 in the assay with MDA-N is 18 µM (inactive); in the assay on NCI/ADR-RES, 15.6 µM (inactive); with T47D it was 18.8 µM (inactive); with BT-549, 18.2 µM (inactive).

In the case of `CSC1=C(C#N)C(=O)N(c2ccc(C)cc2)C(=O)C1C#N` (configuration not stated), the GI50 is > 100 µM (inactive) in the assay with MDA-N, 41.2 µM (inactive) with T47D and > 100 µM (inactive) with BT-549.

In the case of `O=C(c1no[n+]([O-])c1C(=O)c1csc2ccccc12)c1csc2ccccc12`, the GI50 in the assay with MDA-N was 8.69 µM (inactive); with NCI/ADR-RES, 15.6 µM (inactive); with T47D, 5.96 µM (inactive); in the assay with BT-549, 6.55 µM (inactive).

For the compound `CN(C)c1nc2oc(-c3ccccc3)c(-c3ccccc3)c2c2nncn12`, the GI50 with NCI/ADR-RES and with T47D was > 100 µM (inactive) each time.

With `COc1ccc(Cn2c(=O)c(OC)c(C)c3cc4ccccc4cc32)cc1`, the GI50 in the assay with MDA-N is 34.3 µM (inactive); in the assay on NCI/ADR-RES, 22.1 µM (inactive); in the assay on T47D, 33.6 µM (inactive); in the assay with BT-549 it was 34.3 µM (inactive).

As for `Cc1c2c(n(CC(c3ccccc3)c3ccccc3)c1C)NN=C(C#N)S2(=O)=O`, the GI50 with MDA-N, with NCI/ADR-RES, in the assay on T47D and in the assay on BT-549 was > 100 µM (inactive) throughout.

As to `O=C(O)c1ccc(OCc2nc3cc(C(F)(F)F)ccc3nc2-c2ccccc2)cc1`, the GI50 in the assay with MDA-N is 46.1 µM (inactive); in the assay on NCI/ADR-RES, 44.6 µM (inactive); with T47D, 50.7 µM (inactive); in the assay with BT-549, 75.3 µM (inactive).

With `C/C(=C/CNc1ncnc2c1ncn2CCC#N)CO`, the GI50 with MDA-N, in the assay with NCI/ADR-RES and with T47D was > 100 µM (inactive) throughout.

For `Cc1cc(=O)[nH]c(-n2[nH]c3c(c2=O)CCCC3)n1`, the GI50 with MDA-N, in the assay on T47D and with BT-549 was > 100 µM (inactive) throughout.

These data come from ChEMBL document CHEMBL1201862, “PubChem BioAssay data set” (2004).
